Data published in article PMC3657615 (Nature chemical biology, 2012).

Legend:
[1] = test system: RSK2-CTD-mediated autophosphorylation of Ser386; assay: pS386 RSK inhibition in MDA-MB-231 cells; assay type: cell-based
RSK1/2 [2] = assay: Cellular RSK1/2 occupancy after inhibitor washout; assay type: cell-based; conditions: MDA-MB-231 cells, 1 μM inhibitor
RSK1/2 [3] = assay: Cellular RSK1/2 occupancy assay using FMK-BODIPY; assay type: cell-based; conditions: MDA-MB-231 cells
[4] = Reaction with 10 mM glutathione; assay type: physicochemical
[5] = assay type: physicochemical

potency relative to CN-NHiPr in the cellular occupancy assay (RSK1/2 [3])	t1/2 of reaction with 10 mM glutathione [4] [h]	Structure (SMILES)	potency relative to CN-NHiPr in the autophosphorylation assay [1]	time to reappearance of inhibitor-free RSK1/2 after washout (RSK1/2 [2])	reaction with BME, stability or reversibility of the adduct [5]
less potent than CN-NHiPr	16	Cc1ccc(-c2c(C(=O)CF)n(CCCO)c3ncnc(N)c23)cc1 [FMK]	less potent than CN-NHiPr	at least 48 h	
		N#C/C=C/c1ccccc1 [Compound 2, cinnamonitrile]			stable thioether adducts
